Assay results reported in PMC12257394, “Design, Synthesis, and Biological Evaluation of Ferrocenyl–Cyclo-(Gly‑L‑Pro) Hybrids Sensitizing Multidrug-Resistant Cancer Cells to Anticancer Agents” (ACS Medicinal Chemistry Letters, 2025).
“Also recorded” adds a separate entry of the source.

How the values were obtained:
ABCG2 = target: T1, ABCG2 (Homo sapiens, UniProt Q9UNQ0); assay: Pheophorbide A accumulation transport assay in SW620Mito cells; format: cell-based; details: 10 µM compound
T1 construct: ABCG2-overexpressing SW620C and SW620Mito; endogenous in cells; host or cells: SW620Mito (mitoxantrone-resistant variant of SW620, developed in the authors' laboratory by drug selection)
T1 sequence (Q9UNQ0 1-655): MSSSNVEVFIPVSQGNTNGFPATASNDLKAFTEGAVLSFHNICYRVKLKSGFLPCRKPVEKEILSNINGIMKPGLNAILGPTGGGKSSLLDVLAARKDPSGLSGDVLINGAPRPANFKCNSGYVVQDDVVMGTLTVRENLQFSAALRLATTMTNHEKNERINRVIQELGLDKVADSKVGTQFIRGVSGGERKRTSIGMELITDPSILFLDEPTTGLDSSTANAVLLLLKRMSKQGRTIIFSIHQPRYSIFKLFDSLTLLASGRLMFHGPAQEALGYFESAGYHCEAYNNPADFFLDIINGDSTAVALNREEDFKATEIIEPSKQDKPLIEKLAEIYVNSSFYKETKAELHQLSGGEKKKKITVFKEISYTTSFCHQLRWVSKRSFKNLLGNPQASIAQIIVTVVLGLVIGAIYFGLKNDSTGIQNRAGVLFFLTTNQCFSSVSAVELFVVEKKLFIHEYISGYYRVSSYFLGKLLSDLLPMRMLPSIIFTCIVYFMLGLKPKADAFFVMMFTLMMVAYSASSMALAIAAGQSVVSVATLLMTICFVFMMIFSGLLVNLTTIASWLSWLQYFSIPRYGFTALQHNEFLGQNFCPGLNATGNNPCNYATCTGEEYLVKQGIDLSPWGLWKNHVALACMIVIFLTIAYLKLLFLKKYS
Excerpt: To confirm the hypothesis of direct interaction between putative ABC protein inhibitors and transporter molecules, we conducted a series of experiments based on fluorescent probe transport as described previously. None of the compounds affected 2′,7′-bis(2-carboxyethyl)-5-(and-6)-carboxyfluorescein (BCECF) efflux out of SW620M cells, indicating the lack of interaction between the putative inhibitors and ABCC1 (Figure A). […] As anticipated, none of the newly synthesized compounds affected dye accumulation in drug-sensitive SW620 cells (data not shown). […]
Respective samples were supplemented with a specific fluorescent marker (100 nM calcein AM for ABCB1, 100 nM BCECF AM for ABCC1, and 1 µM pheophorbide A for A BCG2). […] For ABCB1 and ABCG2 assays (dye accumulation assays), intracellular fluorescence was measured by flow cytometry (FACSymphony A1, Becton, Dickinson and Company, New Jersey, USA) immediately after dye addition (time 0) and every 3–5 min up to approximately 30 min using a flow cytometer set at 488 nm excitation and 530/30 nm emission for the calcein/ABCB1 assay and 400 nm excitation and 655/8 nm emission for the pheophorbide A/ABCG2 assay. […] The intracellular BCECF concentration was then immediately measured at 488 nm excitation and 530/30 nm emission (time 0). […]

ABCB1 = target: T2, ABCB1 (Homo sapiens, UniProt P08183); assay: Calcein accumulation transport assay in SW620V cells; format: cell-based; details: 10 µM compound; for increase of intracellular retention of calcein: ABCB1, SW620V cells; for inhibition of ABCB1 activity (calcein accumulation assay): SW620V cells, n = 3
T2 construct: ABCB1-overexpressing SW620V cells; endogenous in cells; host or cells: SW620V (vincristine-resistant variant of SW620, developed in the authors' laboratory by drug selection)
T2 sequence (P08183 whole entry): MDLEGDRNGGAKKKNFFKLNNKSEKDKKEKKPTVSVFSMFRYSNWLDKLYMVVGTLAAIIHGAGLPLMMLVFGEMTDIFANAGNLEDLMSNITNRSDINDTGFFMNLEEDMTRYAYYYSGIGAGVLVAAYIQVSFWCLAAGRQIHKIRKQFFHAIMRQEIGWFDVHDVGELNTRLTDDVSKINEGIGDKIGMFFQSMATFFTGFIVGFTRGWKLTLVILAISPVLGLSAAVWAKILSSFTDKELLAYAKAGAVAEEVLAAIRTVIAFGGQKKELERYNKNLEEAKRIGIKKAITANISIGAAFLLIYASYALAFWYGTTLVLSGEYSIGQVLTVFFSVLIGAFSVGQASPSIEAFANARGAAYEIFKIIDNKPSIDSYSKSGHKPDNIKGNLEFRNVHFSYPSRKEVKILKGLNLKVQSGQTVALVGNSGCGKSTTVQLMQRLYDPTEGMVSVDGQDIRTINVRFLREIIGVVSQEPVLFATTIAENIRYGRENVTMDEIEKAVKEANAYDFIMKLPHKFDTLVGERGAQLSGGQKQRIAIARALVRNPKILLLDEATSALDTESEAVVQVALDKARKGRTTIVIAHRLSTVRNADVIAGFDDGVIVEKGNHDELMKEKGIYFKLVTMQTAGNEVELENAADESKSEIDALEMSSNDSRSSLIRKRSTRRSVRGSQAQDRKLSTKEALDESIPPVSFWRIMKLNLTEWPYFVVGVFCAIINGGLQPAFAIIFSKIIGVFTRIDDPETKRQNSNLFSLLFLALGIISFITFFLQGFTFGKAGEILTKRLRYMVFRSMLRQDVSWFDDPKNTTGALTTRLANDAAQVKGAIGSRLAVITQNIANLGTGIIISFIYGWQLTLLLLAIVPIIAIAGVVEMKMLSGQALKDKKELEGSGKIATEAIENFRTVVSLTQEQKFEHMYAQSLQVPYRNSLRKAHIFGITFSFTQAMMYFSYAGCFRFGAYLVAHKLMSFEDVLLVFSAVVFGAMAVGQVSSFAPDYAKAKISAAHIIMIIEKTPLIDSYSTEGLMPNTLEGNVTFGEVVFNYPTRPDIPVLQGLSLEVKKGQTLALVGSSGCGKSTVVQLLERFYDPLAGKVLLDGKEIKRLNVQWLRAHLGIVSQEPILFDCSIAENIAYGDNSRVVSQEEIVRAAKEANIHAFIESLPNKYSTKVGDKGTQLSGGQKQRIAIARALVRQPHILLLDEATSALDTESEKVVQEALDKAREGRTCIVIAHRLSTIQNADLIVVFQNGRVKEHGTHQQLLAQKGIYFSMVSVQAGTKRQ
Excerpt: To confirm the hypothesis of direct interaction between putative ABC protein inhibitors and transporter molecules, we conducted a series of experiments based on fluorescent probe transport as described previously. None of the compounds affected 2′,7′-bis(2-carboxyethyl)-5-(and-6)-carboxyfluorescein (BCECF) efflux out of SW620M cells, indicating the lack of interaction between the putative inhibitors and ABCC1 (Figure A). […] As anticipated, none of the newly synthesized compounds affected dye accumulation in drug-sensitive SW620 cells (data not shown).
SW620 cells and their drug-resistant variants overexpressing ABCB1 (SW620V), ABCC1 (SW620M), or ABCG2 (SW620Mito) were trypsinized and suspended in a complete cell - culture medium prewarmed to 37°C at a final density of approximately 1 × 10^6/mL. The tested compounds were added from DMSO stock solutions to a final concentration of 10 µM.
Respective samples were supplemented with a specific fluorescent marker (100 nM calcein AM for ABCB1, 100 nM BCECF AM for ABCC1, and 1 µM pheophorbide A for A BCG2). For the control, given protein-specific inhibitors (10 µM verapamil for ABCB1, 25 µM MK-571 for ABCC1, and 10 µM Ko143 for ABCG2) were added to parallel, tested compound-free, samples. For ABCB1 and ABCG2 assays (dye accumulation assays), intracellular fluorescence was measured by flow cytometry (FACSymphony A1, Becton, Dickinson and Company, New Jersey, USA) immediately after dye addition (time 0) and every 3–5 min up to approximately 30 min using a flow cytometer set at 488 nm excitation and 530/30 nm emission for the calcein/ABCB1 assay and 400 nm excitation and 655/8 nm emission for the pheophorbide A/ABCG2 assay. For the BCECF/ABCC1 assay (dye exclusion assay), the sample was preincubated at 37°C for 10 min, centrifuged (400 × g, 10 min, RT), and then resuspended in fresh medium. The intracellular BCECF concentration was then immediately measured at 488 nm excitation and 530/30 nm emission (time 0). Further measurements were performed at 15 - min intervals. All samples were incubated at 37°C between measurements. The accumulation/exclusion curves were plotted, and the slope of the initial accumulation rate or dye retention half time was evaluated using the GraphPad Prism software version 10 (GraphPad Software, Boston, Massachusetts USA). The difference between the a ccumulation rate/half time value for dye only and the tested compound/inhibitor samples was expressed as a given protein activity measure.

[1] = Neutral red uptake viability assay, SW620; format: cell-based, human; details: human, SW620 colon cancer cells; SW620, 72 h, n = 3; read-out: Cytotoxic activity IC50 (95% CI)
Method: To evaluate this aspect, we investigated the viability of SW620 colon cancer cells and their multidrug-resistant variants (overexpressing ABCB1, ABCC1, and ABCG2) exposed to 1 and 10 μM 4a–e using a neutral red uptake assay (Table ). In general, compounds 4a–e exerted little or no cytotoxic effect on either SW620 or multidrug-resistant sublines even at 10 μM, with the remarkable exception of SW620C (cisplatin-selected variant of SW620) cells, which turned out to be relatively susceptible toward ferrocenyl 4a–c. […] This trend may reflect steric or electronic contributions to cellular uptake or interaction with intracellular targets. […] However, since E/Z isomeric data are currently available only for compound 4c, this hypothesis requires validation. To quantify this effect, IC50 values were determined (Table ). […]
The normal lung fibroblast MRC-5 and colorectal adenocarcinoma SW620 cell lines used in this experiment were purchased from American Type Culture Collection (USA) via LGC […]
Standards. Multidrug-resistant variants of SW620 cells were developed in our laboratory as described previously.10, 11 All cells were cultured under standard conditions (37°C, 5% CO2, 100% humidity) in high-glucose DMEM supplemented with GlutaMaxTM, HEPES (ThermoFisher Scientific, USA), and 10% fetal bovine serum (EURx, Poland). Cells were routinely tested for potential Mycoplasma contamination using the MycoProbe Mycoplasma Detection kit (R&D System, USA).
In total, 104 cells in 100 µL of complete medium were plated per well of a 96-well plate and left overnight to allow cells to adhere to the surface. Then, the cells were exposed to a desired concentration of tested compound(s). Stock solutions were prepared in DMSO and used immediately. The final DMSO concentration was constant and nontoxic (0.1% v/v). After 70-h incubation, neutral red was added to the final concentration of 1 mM. After another 2 h, the medium was aspirated, and cells were washed twice with PBS. Dye was released using 100 µL of a solubilizer (1% acetic acid in 50% ethanol) on an orbital shaker (10 min). Absorbance was read at 540 nm using EnVision Multilabel Plate Reader (Perkin Elmer, USA). Results were expressed as % of control. The IC50 parameters were calculated using GraphPad Prism version 10 (GraphPad Software, Boston, Massachusetts USA). […]
All experiments were performed in triplicate (n = 3).

O=C1N/C(=C\c2ccccc2-[c-]2cccc2)C(=O)N2CCC[C@@H]12.[Fe+2].c1cc[cH-]c1 [(S,Z)-4b]
increase of intracellular retention of pheophorbide A (ABCG2): ≤ 2.9 fold | increase of intracellular retention of calcein (ABCB1): up to 3.4 fold | inhibition of ABCB1 activity (calcein accumulation assay) (ABCB1): efficiently inhibited ABCB1 activity; also recorded: inhibit calcein efflux

O=C1N/C(=C/c2ccccc2)C(=O)N2CCC[C@@H]12 [(S,E)-4e]
IC50 at 72 h [1]: > 100 µM

O=C1N/C(=C\c2ccc(-[c-]3cccc3)cc2)C(=O)N2CCC[C@@H]12.[Fe+2].c1cc[cH-]c1 [(S,Z)-4d]
increase of intracellular retention of pheophorbide A (ABCG2): ≤ 2.9 fold | increase of intracellular retention of calcein (ABCB1): up to 3.4 fold | inhibition of ABCB1 activity (calcein accumulation assay) (ABCB1): efficiently inhibited ABCB1 activity; also recorded: inhibit calcein efflux

O=C1N/C(=C\c2ccccc2)C(=O)N2CCC[C@@H]12 [(S,Z)-4e]
IC50 at 72 h [1]: > 100 µM
